This is an account of results in patent US11596614B2, “Treatment of intrahepatic cholestatic diseases” (CymaBay Therapeutics, Inc., priority 2014, dated 2023).

The subject of series [1] is subjects with mixed dyslipidemia. Conditions: cited from earlier work.
Series [2] concerns the target T1, PPARa (Homo sapiens, UniProt Q07869).
T1 sequence (Q07869 1-468): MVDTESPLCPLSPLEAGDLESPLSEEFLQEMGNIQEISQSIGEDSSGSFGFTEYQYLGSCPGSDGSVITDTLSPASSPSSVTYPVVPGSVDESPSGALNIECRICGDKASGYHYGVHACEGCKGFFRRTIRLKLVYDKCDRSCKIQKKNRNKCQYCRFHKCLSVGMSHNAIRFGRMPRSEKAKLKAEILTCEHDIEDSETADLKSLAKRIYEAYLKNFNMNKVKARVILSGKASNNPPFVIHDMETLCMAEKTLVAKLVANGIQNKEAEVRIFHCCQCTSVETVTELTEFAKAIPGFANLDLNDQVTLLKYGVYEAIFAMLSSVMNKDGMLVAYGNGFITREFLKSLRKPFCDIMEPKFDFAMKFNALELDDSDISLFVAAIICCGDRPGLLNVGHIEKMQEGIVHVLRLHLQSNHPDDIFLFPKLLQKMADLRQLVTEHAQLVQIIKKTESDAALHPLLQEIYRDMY
The series is described as follows: Specificity for PPARδ compared with PPARa. The class given is biochemical. The text has this:
It is specific (>600-fold and >2500-fold compared with PPARa and peroxisome proliferator-activated receptor-γ receptors). PPARδ activation stimulates fatty acid oxidation and utilization, improves plasma lipid and lipoprotein metabolism, glucose utilization, and mitochondrial respiration, and preserves stem cell homeostasis.

Series [3] relates to subjects with an intrahepatic cholestatic disease such as PBC. Nature of the series: Example 2: treatment of adult subjects with an intrahepatic cholestatic disease such as PBC. The class given is in vivo, human. Conditions: 5, 10, 25, or 50 mg/day orally. How it is done:
Subjects are permitted their usual other medications, including UDCA. […] At each visit, after a 12-hour fast, blood is drawn and urine collected; and a standard metabolic panel, complete blood count, and standard urinalysis are performed. Blood is analyzed for TC, HDL-C, TG, VLDL-C, LDL-C, and apolipoprotein B, for liver function markers such as total and bone-specific alkaline phosphatases, for γ-glutamyl transpeptidase, and also for total and conjugated bilirubin. The subjects also maintain health diaries, which are reviewed at each visit.

A short description of series [4]: Preclinical elimination study. The class given is in vivo.
The conditions of series [5]: gradient-gel electrophoresis, cited from earlier work.
Series [6] relates to subjects with PBC. Nature of the series: Example 1: trial in subjects with PBC on UDCA. It counts as in vivo, human. Conditions: on treatment, 50 or 200 mg/day. The text has this: The trial subjects were adult, male or female, with a diagnosis of PBC by at least two of the following three criteria: (a) a history of alkaline phosphatase (ALP) above the upper limit of normal (ULN) for at least six months, (b) positive anti-mitochondrial antibody titers> 1/40 on immunofluorescence or M2 positive by enzyme linked immunosorbent assay or positive PBC-specific antinuclear antibodies, and (c) documented liver biopsy result consistent with PBC, on a stable and recommended dose of UDCA for the past twelve months, and ALP≥1.67×ULN. Exclusion criteria included AST or ALT≥3×ULN, total bilirubin (TBIL)≥2×ULN, autoimmune hepatitis or a history of chronic viral hepatitis, PSC, the current use of fibrates or simvastatin, the use of colchicine, methotrexate, azathioprine, or systemic steroids in the previous two months, the use of an experimental treatment for PBC, and the use of an experimental or unapproved immunosuppressant. The primary study endpoint was decrease in ALP, and the secondary endpoint was the responder rate for subjects achieving ALP<1.67×ULN and total bilirubin within normal limit, and >15% decrease in ALP. […] According to the original statistical plan, changes in ALP were calculated using the last observation carried forward. […]

[7] abbreviates: once daily oral, 8 weeks, seladelpar 50 or 100 mg, ATV 20 mg.

For `CC(C)c1c(C(=O)Nc2ccccc2)c(-c2ccccc2)c(-c2ccc(F)cc2)n1CC[C@@H](O)C[C@@H](O)CC(=O)O` [ATV, atorvastatin, reference compound], in series [1] (once daily oral, 8 weeks, ATV 20 mg), the “decrease of large LDL particles” value is on record as 30%. The “decrease of small/very small LDL particles” value in series [1] (setting [7]) is recorded as 25%.

For `CCO[C@H](COc1ccc(C(F)(F)F)cc1)CSc1ccc(OCC(=O)O)c(C)c1` [Seladelpar, (R)-2-(4-((2-ethoxy-3-(4-(trifluoromethyl)phenoxy)propyl)thio)-2-methylphenoxy)acetic acid], in series [2], the “specificity for PPARδ compared with PPARa” value is recorded as over 600 fold. Further, in series [3], the “improvement in disease (ALP and GGT)” value was “a decrease in ALP and GGT”. The “distribution of drug in bile” value in series [4] is given as “concentrated in bile”. In addition, in series [5], the “conversion of LDL particle size pattern B (predominant LDL particle size less than 25.75 nm)” value is recorded as “to pattern I or A”. Further, the “conversion of LDL particle size pattern I (predominant LDL particle size 25.75 nm to 26.34 nm)” value in series [5] (pattern A = predominant LDL particle size greater than 26.34 nm) is “to pattern A”. Moreover, in series [1] (50 or 100 mg once daily oral, 8 weeks), the safety and tolerability result was “safe and generally well-tolerated”. Further, the “reduction of high-sensitivity C-reactive protein” value in series [1] (compared to placebo, seladelpar 50 or 100 mg once daily oral alone and in combination with ATV 20 mg, 8 weeks, P<0.05) is 43-72%. In addition, in series [1] (compared to placebo, seladelpar 50 or 100 mg once daily oral alone and in combination with ATV 20 mg, 8 weeks), the “raise of HDL-C” value is on record as 1-12%. Besides, the “reduction of the percentage of subjects meeting the criteria for metabolic syndrome” value in series [1] (mixed dyslipidemia) was over 2 fold. Also, the “decrease of small/very small LDL particles” value in series [1] (setting [7]) is reported as 40-48%. Further, the “increase of large LDL particles” value in series [1] (once daily oral, 8 weeks, seladelpar 50 or 100 mg) is listed as 34-44%. The “adverse events of pruritus” value in series [6] is given as “no adverse events of pruritus were reported”.
